Laboratory results taken from article PMC9090415, “Discovery of small molecule inhibitors of Plasmodium falciparum apicoplast DNA polymerase” (Journal of Enzyme Inhibition and Medicinal Chemistry, 2022).

Target: T1, bacteriophage T4 DNA polymerase (Enterobacteria phage T4, UniProt P04415)
T1 construct: made in house
T1 sequence (P04415 1-898): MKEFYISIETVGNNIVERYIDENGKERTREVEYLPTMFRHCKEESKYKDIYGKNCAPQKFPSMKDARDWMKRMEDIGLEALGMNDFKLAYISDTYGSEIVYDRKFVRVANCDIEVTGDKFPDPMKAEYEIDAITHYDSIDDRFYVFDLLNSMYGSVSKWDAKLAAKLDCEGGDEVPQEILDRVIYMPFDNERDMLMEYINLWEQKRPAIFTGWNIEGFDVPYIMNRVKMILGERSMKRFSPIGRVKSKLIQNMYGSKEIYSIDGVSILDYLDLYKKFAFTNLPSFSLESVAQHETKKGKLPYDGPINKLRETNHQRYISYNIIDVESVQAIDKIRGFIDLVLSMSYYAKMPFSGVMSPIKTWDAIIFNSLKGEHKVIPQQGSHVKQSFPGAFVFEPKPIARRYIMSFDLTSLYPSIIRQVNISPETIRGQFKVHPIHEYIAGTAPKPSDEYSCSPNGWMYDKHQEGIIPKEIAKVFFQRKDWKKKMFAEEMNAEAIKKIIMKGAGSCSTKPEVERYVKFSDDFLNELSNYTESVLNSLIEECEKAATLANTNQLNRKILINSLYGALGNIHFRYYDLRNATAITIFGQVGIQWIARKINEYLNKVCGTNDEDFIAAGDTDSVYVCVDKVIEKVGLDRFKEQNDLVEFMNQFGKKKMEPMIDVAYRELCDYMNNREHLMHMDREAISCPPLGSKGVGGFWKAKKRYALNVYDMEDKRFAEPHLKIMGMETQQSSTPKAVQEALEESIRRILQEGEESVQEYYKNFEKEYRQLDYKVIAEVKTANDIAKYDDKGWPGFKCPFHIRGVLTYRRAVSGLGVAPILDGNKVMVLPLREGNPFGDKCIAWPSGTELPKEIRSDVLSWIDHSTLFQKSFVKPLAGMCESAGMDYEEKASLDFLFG
Test: Counter-screen against bacteriophage T4 DNA polymerase
Assay type: biochemical
Settings: for % inhibition T4 10' 2.5 / % inhibition T4 10' 5 / % inhibition T4 10' 10 / % inhibition T4 10' 20 / % inhibition T4 10' 40 / % inhibition T4 10' 80: read at 10'; for % inhibition T4 70' 2.5 / % inhibition T4 70' 5 / % inhibition T4 70' 10 / % inhibition T4 70' 20 / % inhibition T4 70' 40 / % inhibition T4 70' 80: read at 70'; for % inhibition T4 130' 2.5 / % inhibition T4 130' 5 / % inhibition T4 130' 10 / % inhibition T4 130' 20 / % inhibition T4 130' 40 / % inhibition T4 130' 80: read at 130'; for % inhibition T4 40' 2.5 / % inhibition T4 40' 5 / % inhibition T4 40' 10 / % inhibition T4 40' 20 / % inhibition T4 40' 40 / % inhibition T4 40' 80: read at 40'; for % inhibition T4 90' 2.5 / % inhibition T4 90' 5 / % inhibition T4 90' 10 / % inhibition T4 90' 20 / % inhibition T4 90' 40 / % inhibition T4 90' 80: read at 90'; for % inhibition T4 180' 2.5 / % inhibition T4 180' 5 / % inhibition T4 180' 10 / % inhibition T4 180' 20 / % inhibition T4 180' 40 / % inhibition T4 180' 80: read at 180'
Summary of the method: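 IC50 values come from dose-response testing of each compound against T4 DNA polymerase. This B-family polymerase was purified in-house and used as the counter-screen.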

## O=C(Cc1cc(=O)[nH]c(SCc2ccccc2)n1)Nc1ccc2c(c1)OCO2 [Molecule 46, O=C(Cc1cc(=O)[nH]c(n1)SCc1ccccc1)Nc1ccc2c(c1)OCO2]
DRC-2, concentration 2.5
  % inhibition T4 10': -13%
  % inhibition T4 40': -13%
DRC-2, concentration 40
  % inhibition T4 10': 9%
  % inhibition T4 40': 9%
  % inhibition T4 90': 9%
  % inhibition T4 180': 4%
DRC-2, concentration 80
  % inhibition T4 10': 6%
  % inhibition T4 40': 6%
DRC-2, concentration 10
  % inhibition T4 90': 4%

## COc1cccc(Oc2c(C(F)(F)F)oc3cc(OC(=O)N(C)C)ccc3c2=O)c1 [Molecule 52, COc1cccc(c1)Oc1c(=O)c2ccc(cc2oc1C(F)(F)F)OC(=O)N(C)C]
DRC-2, concentration 20
  % inhibition T4 10': 10%
  % inhibition T4 40': 10%
  % inhibition T4 180': 3%
DRC-2, concentration 40
  % inhibition T4 10': 17%
DRC-2, concentration 10
  % inhibition T4 40': 7%
  % inhibition T4 90': 7%
DRC-2, concentration 5
  % inhibition T4 90': 3%
DRC-2, concentration 80
  % inhibition T4 180': 17%

## C#CC(C=CC)OC(=O)c1ccccc1C(=O)O (stereo not shown) [Molecule 61, CC=CC(OC(=O)c1ccccc1C(=O)O)C#C]
DRC-1, concentration 2.5
  % inhibition T4 10' 2.5: 9.3785%
  % inhibition T4 70' 2.5: 5.999%
  % inhibition T4 130' 2.5: 3.358%
DRC-1, concentration 5
  % inhibition T4 10' 5: 11.31%
  % inhibition T4 70' 5: 5.822%
  % inhibition T4 130' 5: 2.079%
DRC-1, concentration 10
  % inhibition T4 10' 10: 22.4398%
  % inhibition T4 70' 10: 15.1139%
  % inhibition T4 130' 10: 10.4202%
DRC-1, concentration 20
  % inhibition T4 10' 20: 21.3205%
  % inhibition T4 70' 20: 11.2187%
  % inhibition T4 130' 20: 6.447%
DRC-1, concentration 40
  % inhibition T4 10' 40: 28.2089%
  % inhibition T4 70' 40: 17.6446%
  % inhibition T4 130' 40: 13.4652%
DRC-1, concentration 80
  % inhibition T4 10' 80: 28.2741%
  % inhibition T4 70' 80: 16.7862%
  % inhibition T4 130' 80: 12.4594%
DRC-2, concentration 2.5
  % inhibition T4 10' 2.5: -4.4%
  % inhibition T4 40' 2.5: -4.37%
  % inhibition T4 90' 2.5: -3.79%
  % inhibition T4 180' 2.5: -5.62%
DRC-2, concentration 5
  % inhibition T4 10' 5: -3%
  % inhibition T4 40' 5: -3.69%
  % inhibition T4 90' 5: -6%
  % inhibition T4 180' 5: -11%
DRC-2, concentration 10
  % inhibition T4 10' 10: 4%
  % inhibition T4 40' 10: 2%
  % inhibition T4 90' 10: 0.277%
  % inhibition T4 180' 10: -7%
DRC-2, concentration 20
  % inhibition T4 10' 20: 6.52%
  % inhibition T4 40' 20: 3.35%
  % inhibition T4 90' 20: 0.217%
  % inhibition T4 180' 20: -5.56%
DRC-2, concentration 40
  % inhibition T4 10' 40: 12%
  % inhibition T4 40' 40: 9%
  % inhibition T4 90' 40: 6%
  % inhibition T4 180' 40: -0.544%
DRC-2, concentration 80
  % inhibition T4 10' 80: 8%
  % inhibition T4 40' 80: 4.65%
  % inhibition T4 90' 80: 0.315%
  % inhibition T4 180' 80: -3.3%

## CC(C)CC(C(=O)O)N1C(=O)C2C3C=CC(C2C1=O)C1C(=O)N(C(CC(C)C)C(=O)O)C(=O)C31 (stereo not shown) [KU0193449]
DRC-1, concentration 2.5
  % inhibition T4 10' 2.5: 3.278%
  % inhibition T4 70' 2.5: 0.3673%
  % inhibition T4 130' 2.5: -2.364%
DRC-1, concentration 5
  % inhibition T4 10' 5: 4.491%
  % inhibition T4 70' 5: 1.3204%
  % inhibition T4 130' 5: -1.909%
DRC-1, concentration 10
  % inhibition T4 10' 10: 8.777%
  % inhibition T4 70' 10: 2.619%
  % inhibition T4 130' 10: -0.6043%
DRC-1, concentration 20
  % inhibition T4 10' 20: 7.866%
  % inhibition T4 70' 20: 3.878%
  % inhibition T4 130' 20: 0.2689%
DRC-1, concentration 40
  % inhibition T4 10' 40: 21.6809%
  % inhibition T4 70' 40: 15.5336%
  % inhibition T4 130' 40: 11.2312%
DRC-1, concentration 80
  % inhibition T4 10' 80: 52.1619%
  % inhibition T4 70' 80: 40.8979%
  % inhibition T4 130' 80: 34.0378%
DRC-2, concentration 2.5
  % inhibition T4 10' 2.5: 4.54%
  % inhibition T4 40' 2.5: 4.54%
  % inhibition T4 90' 2.5: 4%
  % inhibition T4 180' 2.5: -1%
DRC-2, concentration 5
  % inhibition T4 10' 5: 4.24%
  % inhibition T4 40' 5: 4.24%
  % inhibition T4 90' 5: 3%
  % inhibition T4 180' 5: -1.88%
DRC-2, concentration 10
  % inhibition T4 10' 10: 10%
  % inhibition T4 40' 10: 10%
  % inhibition T4 90' 10: 7%
  % inhibition T4 180' 10: 0.586%
DRC-2, concentration 20
  % inhibition T4 10' 20: 15%
  % inhibition T4 40' 20: 15%
  % inhibition T4 90' 20: 11%
  % inhibition T4 180' 20: 2.64%
DRC-2, concentration 40
  % inhibition T4 10' 40: 28%
  % inhibition T4 40' 40: 28%
  % inhibition T4 90' 40: 24%
  % inhibition T4 180' 40: 15%
DRC-2, concentration 80
  % inhibition T4 10' 80: 55%
  % inhibition T4 40' 80: 55%
  % inhibition T4 90' 80: 52%
  % inhibition T4 180' 80: 45%

## Cc1ccc(NC(=O)Cn2ccc3c(=O)[nH]ccc32)cc1F [Molecule 48, O=C(Cn1ccc2c1cc[nH]c2=O)Nc1ccc(c(c1)F)C]
DRC-2, concentration 5
  % inhibition T4 10': -12%
  % inhibition T4 40': -12%
  % inhibition T4 180': -12%
DRC-2, concentration 10
  % inhibition T4 90': -15%
  % inhibition T4 180': -15%

## COc1ccc(C(=O)N2CCc3c(nc4cc(-c5ccccc5Cl)[nH]n4c3=O)C2)cn1 [Molecule 26, COc1ccc(cn1)C(=O)N1CCc2c(C1)nc1n(c2=O)[nH]c(c1)c1ccccc1Cl]
DRC-2, concentration 2.5
  % inhibition T4 10': -4%
  % inhibition T4 40': -4%
DRC-2, concentration 10
  % inhibition T4 10': -17%
  % inhibition T4 180': -10%
DRC-2, concentration 40
  % inhibition T4 40': -23%
  % inhibition T4 180': -17%
DRC-2, concentration 5
  % inhibition T4 90': -10%
DRC-2, concentration 80
  % inhibition T4 90': -23%
  % inhibition T4 180': -17%

## Cl.NC(CO)C(=O)NNCc1ccc(O)c(O)c1O (stereo not shown) [KU0260493]
DRC-2, concentration 2.5
  % inhibition T4 10': -17%
  % inhibition T4 90': -11%
DRC-2, concentration 10
  % inhibition T4 10': -11%
DRC-2, concentration 5
  % inhibition T4 180': -17%

## CC(=O)c1cc2c(N)c(/C(N)=N/C#N)sc2nc1C [KU0015866]
DRC-2, concentration 2.5
  % inhibition T4 10': -16%
  % inhibition T4 40': -16%
  % inhibition T4 180': -20%
DRC-2, concentration 5
  % inhibition T4 10': -17%
  % inhibition T4 40': -17%
  % inhibition T4 90': -16%
  % inhibition T4 180': -23%
DRC-2, concentration 10
  % inhibition T4 10': -18%
  % inhibition T4 40': -18%
  % inhibition T4 90': -18%
DRC-2, concentration 20
  % inhibition T4 10': -17%
  % inhibition T4 40': -17%
  % inhibition T4 90': -18%
  % inhibition T4 180': -23%
DRC-2, concentration 40
  % inhibition T4 10': -11%
  % inhibition T4 40': -11%
  % inhibition T4 90': -11%
  % inhibition T4 180': -16%
DRC-2, concentration 80
  % inhibition T4 10': -21%
  % inhibition T4 40': -21%
  % inhibition T4 90': -20%

## CCCCC(=O)N1CCc2c(nc3cc(-c4ccccc4Cl)[nH]n3c2=O)C1 [Molecule 37, CCCCC(=O)N1CCc2c(C1)nc1n(c2=O)[nH]c(c1)c1ccccc1Cl]
DRC-2, concentration 2.5
  % inhibition T4 10': 6%
  % inhibition T4 40': 6%
  % inhibition T4 90': 5%
DRC-2, concentration 5
  % inhibition T4 10': -3%
  % inhibition T4 40': -3%
DRC-2, concentration 10
  % inhibition T4 10': 3.42%
  % inhibition T4 40': 3.42%
DRC-2, concentration 20
  % inhibition T4 10': 0.821%
  % inhibition T4 40': 0.821%
DRC-2, concentration 40
  % inhibition T4 10': 4.74%
  % inhibition T4 40': 4.74%
  % inhibition T4 90': 5%
DRC-2, concentration 80
  % inhibition T4 10': 1.57%
  % inhibition T4 40': 1.57%
